Measured values published in patent US20070093520A1, “Method of treatment of diarrhea-predominant irritable bowel syndrome in a subject” (priority 2005, published 2007).
Like-named read-outs stand apart in the source and are kept apart here.

Tested on: diarrhea-predominant IBS subjects
Assay type: in vivo, human
Conditions: for TEAE incidence: constipation / TEAE incidence: nausea: 3007 Study
Method: The study was performed in approximately 150 study centers. Approximately 1600 eligible subjects were to be given cilansetron 2 mg TID. At Visit 1, pre-treatment assessments were conducted. […] Subjects were to return to the study site one month later for Visit 3 (Day 31) for their first interim assessment. […] All subjects who discontinued from the study were to have the same post-study assessments required at Visit 7 performed at their early termination visit. […]
Stool specimens were analyzed at every visit for occult blood. An independent GERB had been established to provide advice on GI AEs during the course of the study.
Adverse events were assessed at Baseline, at each clinic visit, and at the end of the study (Month 12 or the early termination visit). All AEs, which occurred during the study were followed up in accordance with good medical practice until resolved or judged no longer clinically significant, or if a condition was chronic, until fully characterized. Adverse events could occur in the specified follow-up period and, regardless of the interval since the last administration of the study medication, were treated in the same manner as an AE which occurred during the treatment with study medication. Each AE was evaluated for duration, severity, seriousness, and causal relationship to the investigational drug. The action taken and the outcome were also recorded.
Specifically, subjects who were lost to follow-up and had no post-Baseline contact with the site were excluded from the Safety population. The subjects who discontinued from the study due to lost to follow-up were identified based on the information collected on the study termination CRF page.
After the pretreatment assessment at Visit 1 (Days […] to −3), subjects were to return to the study site for a Baseline assessment and start the treatment at Visit 2 (Day 1).
For the by time-interval analyses of disposition, prevalence of AEs, and of markedly abnormal and predefined changes in laboratory values, vital signs, and ECGs, the following interval windows were used:
Adverse events that were already present prior to the first dose of cilansetron study medication but increased in severity afterwards were considered as treatment-emergent.
The 5% cutoff point was based on the incidence within higher level terms.
Subjects were counted at most once for each primary system organ class and preferred term. Serious AEs that resolved prior to receiving study medication or occurred more than 30 days after the last dose of study medication were not included in the incidence tables. A listing of all SAEs is presented; SAEs with onset prior to receiving study medication or more than 30 days after discontinuation of study medication were flagged. The listing presents lower level term and preferred term of the SAE, severity, action taken, outcome, and relationship of the SAE, start and stop date of the SAE, study day of onset of the SAE, age, race, and sex.

[1] = 2 mg, Safety Population, 3008, under Neoplasms Benign, Malignant and Unspecified
[2] = 2 mg, Safety Population, 3008, under Pregnancy, Puerperium and Perinatal Conditions
[3] = 2 mg, Safety Population, 3008, under Social Circumstances
[4] = 2 mg, Safety Population, 3008, under Surgical and Medical Procedures
[5] = 2 mg, Safety Population, 3008, under Vascular Disorders

Cc1nccn1C[C@H]1CCc2c(c3cccc4c3n2CCC4)C1=O [cilansetron, (R)-(−)-4,5,6,8,9,10-hexahydro-10-[(2-methyl-1H-imidazol-1-yl)methyl]-11H-pyrido-[3,2,1-jk]-carbazol-11-one]
1 (<1%) n (%): TEAE incidence: Large Cell Carcinoma of the Respiratory Tract Stage Unspecified [1] | TEAE incidence: Lip and Oral Cavity Neoplasms Benign [1] | TEAE incidence: Lung Adenocarcinoma NOS [1] | TEAE incidence: Non-Hodgkin's Lymphoma NOS [1] | TEAE incidence: Non-Hodgkin's Lymphomas NEC [1] | TEAE incidence: Pancreatic Carcinoma NOS [1] | TEAE incidence: Pancreatic Neoplasms Malignant (Excl Islet Cell and Carcinoid) [1] | TEAE incidence: Rectal Cancer NOS [1] | TEAE incidence: Rectal Neoplasms Malignant [1] | TEAE incidence: Salivary Gland Adenoma [1] | TEAE incidence: Urinary Tract Neoplasms Benign [1] | TEAE incidence: Urinary Tract Neoplasms Unspecified Malignancy NEC [1] | TEAE incidence: Genital Haemorrhage NOS (2 mg, Safety Population, 3008, under Reproductive Tract Disorders NEC (Excl Neoplasms)) | TEAE incidence: Bone Therapeutic Procedures NEC [4] | TEAE incidence: Fallopian Tube Therapeutic Procedures* [4] | TEAE incidence: Osteosynthesis [4] | TEAE incidence: Tubal Ligation* [4] | TEAE incidence: Bruising, Ecchymosis and Purpura [5] | TEAE incidence: Circulatory Collapse and Shock [5] | TEAE incidence: Essential Hypertension [5] | TEAE incidence: Non-Site Specific Vascular Disorders NEC [5] | TEAE incidence: Peripheral Embolism and Thrombosis [5] | TEAE incidence: Periphlebitis [5] | TEAE incidence: Petechiae [5] | TEAE incidence: Phlebitis Superficial [5] | TEAE incidence: Shock [5] | TEAE incidence: Varicose Veins NOS [5] | TEAE incidence: Varicose Veins Non-Site Specific [5] | TEAE incidence: Vascular Disorder NOS [5] | TEAE incidence: Venous Thrombosis Deep Limb [5] | TEAE incidence: Abdominal Hernias, Site Unspecified (Cilansetron 2 mg, N=1454) | TEAE incidence: Abdominal Rigidity (Cilansetron 2 mg, N=1454) | TEAE incidence: Abnormal Sleep-Related Events (Cilansetron 2 mg, N=1454) | TEAE incidence: Abscess Limb (Cilansetron 2 mg, N=1454) | TEAE incidence: Abscess NOS (Cilansetron 2 mg, N=1454) | TEAE incidence: Absence Seizures (Cilansetron 2 mg, N=1454) | TEAE incidence: Acute and Chronic Pancreatitis (Cilansetron 2 mg, N=1454) | TEAE incidence: Aerophagia (Cilansetron 2 mg, N=1454) | TEAE incidence: Anal Abscess (Cilansetron 2 mg, N=1454) | TEAE incidence: Anal Ulcer (Cilansetron 2 mg, N=1454) | TEAE incidence: Anal and Colorectal Neoplasms NEC (Cilansetron 2 mg, N=1454) | TEAE incidence: Antibiotic Associated Colitis (Cilansetron 2 mg, N=1454) | TEAE incidence: Aphthous Stomatitis (Cilansetron 2 mg, N=1454) | TEAE incidence: Appendiceal Abscess (Cilansetron 2 mg, N=1454) | TEAE incidence: Appendicitis (Cilansetron 2 mg, N=1454) | TEAE incidence: Arterial Pressure NOS Increased (Cilansetron 2 mg, N=1454) | TEAE incidence: Benign Oral Cavity Neoplasms (Cilansetron 2 mg, N=1454) | TEAE incidence: Bilirubin Urine (Cilansetron 2 mg, N=1454) | TEAE incidence: Blood Bilirubin Unconjugated Increased (Cilansetron 2 mg, N=1454) | TEAE incidence: Blood Creatinine Increased (Cilansetron 2 mg, N=1454) | TEAE incidence: Blood Pressure (Cilansetron 2 mg, N=1454) | TEAE incidence: Bowel Sounds Abnormal (Cilansetron 2 mg, N=1454) | TEAE incidence: Bronchopneumonia NOS (Cilansetron 2 mg, N=1454) | TEAE incidence: Burning Sensation NOS (Cilansetron 2 mg, N=1454) | TEAE incidence: Campylobacter Gastroenteritis (Cilansetron 2 mg, N=1454)
19%: TEAE incidence: constipation (females)
4 (<1%) n (%): TEAE incidence: Hypertension Aggravated [5] | TEAE incidence: Phlebitis NEC [5]
7 (<1%) n (%): TEAE incidence: Anal and Rectal Pains (Cilansetron 2 mg, N=1454) | TEAE incidence: Anal and Rectal Signs and Symptoms (Cilansetron 2 mg, N=1454) | TEAE incidence: Blood Alkaline Phosphatase NOS Increased (Cilansetron 2 mg, N=1454) | TEAE incidence: Blood Uric Acid Increased (Cilansetron 2 mg, N=1454)
15 (1%) n (%): TEAE incidence: Hypertension NOS [5]
2 (<1%) n (%): TEAE incidence: Haemangioma of Liver [1] | TEAE incidence: Hepatobiliary Neoplasms Benign [1] | TEAE incidence: Lipoma NOS [1] | TEAE incidence: Non-Small Cell Neoplasms Malignant of the Respiratory Tract Cell Type Specified [1] | TEAE incidence: Soft Tissue Neoplasms Benign NEC [1] | TEAE incidence: Normal Pregnancy, Labour and Delivery* [2] | TEAE incidence: Pregnancy NOS* [2] | TEAE incidence: Phlebitis NOS [5] | TEAE incidence: Abdominal Findings Abnormal (Cilansetron 2 mg, N=1454) | TEAE incidence: Anal Haemorrhage (Cilansetron 2 mg, N=1454) | TEAE incidence: Anal and Rectal Ulcers and Perforation (Cilansetron 2 mg, N=1454) | TEAE incidence: Blood Glucose Increased (Cilansetron 2 mg, N=1454) | TEAE incidence: Blood Thyroid Stimulating Hormone Increased (Cilansetron 2 mg, N=1454) | TEAE incidence: Blood Urea Increased (Cilansetron 2 mg, N=1454) | TEAE incidence: Body Temperature Decreased (Cilansetron 2 mg, N=1454) | TEAE incidence: Body Tinea (Cilansetron 2 mg, N=1454) | TEAE incidence: Bronchitis Chronic NOS (Cilansetron 2 mg, N=1454)
8 (<1%) n (%): TEAE incidence: Abdominal Pain Aggravated (Cilansetron 2 mg, N=1454) | TEAE incidence: Anal and Rectal Disorders NEC (Cilansetron 2 mg, N=1454)
31 (2%) n (%): TEAE incidence: Blood Creatine Phosphokinase Increased (Cilansetron 2 mg, N=1454)
11 (<1%) n (%): TEAE incidence: Blood Triglycerides Increased (Cilansetron 2 mg, N=1454) | TEAE incidence: Blood Urine Present (Cilansetron 2 mg, N=1454)
24 (2%) n (%): TEAE incidence: Bronchitis Acute NOS (Cilansetron 2 mg, N=1454)
3 (<1%) n (%): TEAE incidence: Uterine Fibroids* [1] | TEAE incidence: Uterine Neoplasms Benign* [1] | TEAE incidence: Age Related Issues [3] | TEAE incidence: Menopause* [3] | TEAE incidence: Orthostatic Hypotension [5] | TEAE incidence: Vascular Hypotensive Disorders [5] | TEAE incidence: Anal Discomfort (Cilansetron 2 mg, N=1454) | TEAE incidence: Blood Potassium Increased (Cilansetron 2 mg, N=1454)
57 (4%) n (%): TEAE incidence: Abdominal Distension (Cilansetron 2 mg, N=1454)
25 (2%) n (%): TEAE incidence: Blood Cholesterol Increased (Cilansetron 2 mg, N=1454)
21 (1%) n (%): TEAE incidence: Abdominal Pain Lower (Cilansetron 2 mg, N=1454)
11%: TEAE incidence: constipation (males)
13 (<1%) n (%): TEAE incidence: Blood in Stool (Cilansetron 2 mg, N=1454)
50 (3%) n (%): TEAE incidence: Abdominal Pain Upper (Cilansetron 2 mg, N=1454)
15%: TEAE incidence: constipation (all subjects)
19 (1%) n (%): TEAE incidence: Alanine Aminotransferase Increased (Cilansetron 2 mg, N=1454)
6 (<1%) n (%): TEAE incidence: Abdominal Discomfort (Cilansetron 2 mg, N=1454)
7%: TEAE incidence: nausea (females)
5 (<1%) n (%): TEAE incidence: Anal Fissure (Cilansetron 2 mg, N=1454) | TEAE incidence: Blood Bilirubin Increased (Cilansetron 2 mg, N=1454) | TEAE incidence: Blood Pressure Increased (Cilansetron 2 mg, N=1454) | TEAE incidence: Body Temperature Increased (Cilansetron 2 mg, N=1454)
5%: TEAE incidence: nausea (all subjects)
3%: TEAE incidence: nausea (males)
16 (1%) n (%): TEAE incidence: Aspartate Aminotransferase Increased (Cilansetron 2 mg, N=1454)
20 (1%) n (%): TEAE incidence: Vascular Hypertensive Disorders NEC [5]
27 (2%) n (%): TEAE incidence: Bronchitis NOS (Cilansetron 2 mg, N=1454)
